Active and inactive are the calls of the source.
How the values were obtained:
[1] = target: Metabotropic glutamate receptor 4 (Rattus norvegicus, UniProt P31423); experiment: Modulation of the Metabotropic Glutamate Receptor mGluR4: Rat PAM Potency. [Related pubchem assays (depositor defined):AID2437, AID2807]; format: functional
[2] = target: T1, Tyrosine-protein phosphatase non-receptor type 22 (Homo sapiens, UniProt Q9Y2R2); experiment: SAR LYP1 Fluorescent Assay using OMFP substrate for In Vitro dose response studies - Set 3. [Related pubchem assays (depositor defined):AID1779, AID1784, AID2140, AID2686]; format: functional
T1 sequence (Q9Y2R2 whole entry): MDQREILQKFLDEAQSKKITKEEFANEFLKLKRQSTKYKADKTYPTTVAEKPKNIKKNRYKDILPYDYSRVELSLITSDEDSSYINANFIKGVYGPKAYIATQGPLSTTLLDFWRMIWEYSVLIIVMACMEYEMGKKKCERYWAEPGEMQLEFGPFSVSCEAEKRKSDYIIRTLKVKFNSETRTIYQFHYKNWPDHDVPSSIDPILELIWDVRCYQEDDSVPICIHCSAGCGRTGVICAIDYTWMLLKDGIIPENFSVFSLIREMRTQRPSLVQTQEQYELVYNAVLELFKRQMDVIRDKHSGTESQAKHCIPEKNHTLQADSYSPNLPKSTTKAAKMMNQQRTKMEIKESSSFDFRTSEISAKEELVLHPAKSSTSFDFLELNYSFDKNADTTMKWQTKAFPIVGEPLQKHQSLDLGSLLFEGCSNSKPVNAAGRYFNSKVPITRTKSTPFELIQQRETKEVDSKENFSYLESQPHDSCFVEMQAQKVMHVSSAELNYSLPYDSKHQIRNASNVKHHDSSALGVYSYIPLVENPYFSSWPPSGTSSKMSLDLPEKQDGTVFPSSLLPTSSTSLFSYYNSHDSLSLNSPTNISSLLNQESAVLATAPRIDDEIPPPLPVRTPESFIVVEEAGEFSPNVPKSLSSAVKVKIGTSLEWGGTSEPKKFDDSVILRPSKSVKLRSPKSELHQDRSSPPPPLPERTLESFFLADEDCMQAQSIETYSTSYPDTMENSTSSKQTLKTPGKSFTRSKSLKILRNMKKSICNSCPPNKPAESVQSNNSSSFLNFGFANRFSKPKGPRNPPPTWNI

[3] = target: T2, Tyrosine-protein phosphatase non-receptor type 7 (Homo sapiens, UniProt P35236); experiment: redox-active compounds inhibiting HePTP phosphatase – biochemical, fluorescence, mechanism study (AID 2068); format: functional
T2 sequence (P35236 whole entry): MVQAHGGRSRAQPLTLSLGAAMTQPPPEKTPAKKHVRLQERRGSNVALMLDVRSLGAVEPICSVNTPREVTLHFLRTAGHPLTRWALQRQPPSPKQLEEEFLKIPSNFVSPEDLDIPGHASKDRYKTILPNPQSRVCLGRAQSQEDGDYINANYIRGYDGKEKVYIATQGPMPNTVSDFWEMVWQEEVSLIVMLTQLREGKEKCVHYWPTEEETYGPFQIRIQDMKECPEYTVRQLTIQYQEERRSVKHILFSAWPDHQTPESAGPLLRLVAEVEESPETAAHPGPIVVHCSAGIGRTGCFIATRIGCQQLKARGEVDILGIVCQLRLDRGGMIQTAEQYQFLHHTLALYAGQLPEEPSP

[4] = target: T3, Dual specificity protein phosphatase 3 (Homo sapiens, UniProt P51452); experiment: MOA VHR1 Fluorescent secondary assay for identification of redox-state modulating compounds. [Related pubchem assays (depositor defined):AID1654, AID1661, AID1878, AID1957]
T3 sequence (P51452 whole entry, the tested form may be a part): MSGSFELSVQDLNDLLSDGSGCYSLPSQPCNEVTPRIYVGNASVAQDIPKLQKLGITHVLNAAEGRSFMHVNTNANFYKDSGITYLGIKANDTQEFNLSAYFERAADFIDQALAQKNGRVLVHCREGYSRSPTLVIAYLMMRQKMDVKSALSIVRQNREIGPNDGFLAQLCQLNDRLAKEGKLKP

[5] = target: T1, Tyrosine-protein phosphatase non-receptor type 22; experiment: PTPN22 enzyme inhibitors – biochemical, fluorescence, LYP catalytic domain, selectivity assay for LMPTP inhibitor project, dose response (AID 652006); format: functional; details: read-out: IC50_Mean
[6] = target: T3, Dual specificity protein phosphatase 3; experiment: SAR VHR1 absorbance Assay for In Vitro dose response studies. [Related pubchem assays (depositor defined):AID1654, AID1661, AID1878, AID1992, AID2004]
[7] = target: T4, Small ubiquitin-related modifier 1 (Homo sapiens, UniProt P63165); experiment: SUMO1 protein-protein binding blockers, potency – biochemical, FRET, dose response (AID 624383); format: functional; details: read-out: IC50_Mean
T4 sequence (P63165 whole entry): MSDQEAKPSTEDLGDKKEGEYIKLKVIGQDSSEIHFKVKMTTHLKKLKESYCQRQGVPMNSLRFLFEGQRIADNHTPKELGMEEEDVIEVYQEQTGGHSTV

[8] = target: T2, Tyrosine-protein phosphatase non-receptor type 7; experiment: inhibition of hematopoietic tyrosine phosphatase HePTP – biochemical, set 2, SAR follow-up (AID 449736); format: functional
[9] = target: Tyrosine-protein phosphatase non-receptor type 12 (Homo sapiens, UniProt Q05209); experiment: SAR Selectivity Analysis of small molecule inhibitors of PEST using pCAP in a fluorescence assay. [Related pubchem assays (depositor defined):AID1779, AID1784, AID2135]; format: functional
Chain of Tyrosine-protein phosphatase non-receptor type 12 (Q05209 whole entry): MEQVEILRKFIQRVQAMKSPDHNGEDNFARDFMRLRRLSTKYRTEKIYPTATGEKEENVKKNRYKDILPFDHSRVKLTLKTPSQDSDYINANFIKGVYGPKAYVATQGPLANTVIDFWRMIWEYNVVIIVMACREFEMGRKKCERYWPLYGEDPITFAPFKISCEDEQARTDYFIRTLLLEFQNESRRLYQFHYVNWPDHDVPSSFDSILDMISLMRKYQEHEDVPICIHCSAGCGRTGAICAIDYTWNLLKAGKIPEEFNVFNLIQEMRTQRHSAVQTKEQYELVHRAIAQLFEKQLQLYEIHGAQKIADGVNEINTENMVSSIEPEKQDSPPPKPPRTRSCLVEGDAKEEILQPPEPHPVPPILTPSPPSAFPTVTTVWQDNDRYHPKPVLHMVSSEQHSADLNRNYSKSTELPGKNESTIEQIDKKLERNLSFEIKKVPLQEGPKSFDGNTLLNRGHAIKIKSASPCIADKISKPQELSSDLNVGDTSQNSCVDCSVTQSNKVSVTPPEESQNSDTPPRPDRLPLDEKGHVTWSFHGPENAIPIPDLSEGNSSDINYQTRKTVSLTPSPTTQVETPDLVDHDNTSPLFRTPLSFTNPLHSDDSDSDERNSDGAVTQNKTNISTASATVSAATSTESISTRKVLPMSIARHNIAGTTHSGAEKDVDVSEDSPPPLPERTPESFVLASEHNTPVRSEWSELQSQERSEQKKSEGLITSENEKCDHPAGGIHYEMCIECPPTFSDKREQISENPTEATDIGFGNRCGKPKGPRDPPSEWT

[10] = target: T5, Low molecular weight phosphotyrosine protein phosphatase (Homo sapiens, UniProt P24666); format: functional; details: read-out: IC50_Mean
T5 sequence (P24666 whole entry): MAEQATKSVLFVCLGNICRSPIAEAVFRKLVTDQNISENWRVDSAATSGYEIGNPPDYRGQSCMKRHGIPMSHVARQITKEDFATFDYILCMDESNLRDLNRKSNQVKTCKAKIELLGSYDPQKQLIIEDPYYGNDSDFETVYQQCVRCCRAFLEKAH

[11] = target: T6, Dual specificity protein phosphatase 6 (Rattus norvegicus, UniProt Q64346); format: functional;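 further: confirmatory in vitro dose-response testing of MKP-3 inhibition; recombinant His-tagged MKP-3 made in E. coli BL21 with OMFP substrate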
T6 sequence (Q64346 whole entry): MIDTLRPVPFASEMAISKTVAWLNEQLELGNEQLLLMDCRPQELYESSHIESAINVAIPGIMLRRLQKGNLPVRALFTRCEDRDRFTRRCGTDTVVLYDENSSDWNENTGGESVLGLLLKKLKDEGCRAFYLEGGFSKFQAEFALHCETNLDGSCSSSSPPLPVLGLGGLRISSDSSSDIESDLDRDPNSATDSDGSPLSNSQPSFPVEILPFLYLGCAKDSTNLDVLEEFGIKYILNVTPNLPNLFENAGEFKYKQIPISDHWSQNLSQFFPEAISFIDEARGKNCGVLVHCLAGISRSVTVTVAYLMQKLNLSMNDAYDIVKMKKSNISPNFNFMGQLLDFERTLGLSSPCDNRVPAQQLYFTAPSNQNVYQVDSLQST

[12] = target: T4, Small ubiquitin-related modifier 1; experiment: SUMO1 protein interaction blockers, potency – biochemical, fluorescence polarization, uHTS hits, dose response (AID 624382); format: functional; details: read-out: IC50_Mean
[13] = target: T1, Tyrosine-protein phosphatase non-receptor type 22; experiment: inhibition of lymphoid tyrosine phosphatase LYP – biochemical, pCAP fluorogenic substrate, fluorescence, set 3, SAR follow-up (AID 449727); format: functional
[14] = target: T3, Dual specificity protein phosphatase 3; experiment: SAR VHR1 Fluorescent Assay for In Vitro dose response studies. [Related pubchem assays (depositor defined):AID1654, AID1661, AID1878, AID1992, AID2004, AID2070, AID2085]; format: functional
[15] = target: T5, Low molecular weight phosphotyrosine protein phosphatase; format: functional; details: read-out: IC50_Mean; remark: listed apart in the source
Genome polyprotein = Genome polyprotein (dengue virus type 2, UniProt P29990); experiment: flavivirus cap methylation enzyme inhibition – biochemical, confirmation dose response, primary screen (AID 588689); format: functional
Chain of Genome polyprotein (P29990 2492-3391 limits assumed): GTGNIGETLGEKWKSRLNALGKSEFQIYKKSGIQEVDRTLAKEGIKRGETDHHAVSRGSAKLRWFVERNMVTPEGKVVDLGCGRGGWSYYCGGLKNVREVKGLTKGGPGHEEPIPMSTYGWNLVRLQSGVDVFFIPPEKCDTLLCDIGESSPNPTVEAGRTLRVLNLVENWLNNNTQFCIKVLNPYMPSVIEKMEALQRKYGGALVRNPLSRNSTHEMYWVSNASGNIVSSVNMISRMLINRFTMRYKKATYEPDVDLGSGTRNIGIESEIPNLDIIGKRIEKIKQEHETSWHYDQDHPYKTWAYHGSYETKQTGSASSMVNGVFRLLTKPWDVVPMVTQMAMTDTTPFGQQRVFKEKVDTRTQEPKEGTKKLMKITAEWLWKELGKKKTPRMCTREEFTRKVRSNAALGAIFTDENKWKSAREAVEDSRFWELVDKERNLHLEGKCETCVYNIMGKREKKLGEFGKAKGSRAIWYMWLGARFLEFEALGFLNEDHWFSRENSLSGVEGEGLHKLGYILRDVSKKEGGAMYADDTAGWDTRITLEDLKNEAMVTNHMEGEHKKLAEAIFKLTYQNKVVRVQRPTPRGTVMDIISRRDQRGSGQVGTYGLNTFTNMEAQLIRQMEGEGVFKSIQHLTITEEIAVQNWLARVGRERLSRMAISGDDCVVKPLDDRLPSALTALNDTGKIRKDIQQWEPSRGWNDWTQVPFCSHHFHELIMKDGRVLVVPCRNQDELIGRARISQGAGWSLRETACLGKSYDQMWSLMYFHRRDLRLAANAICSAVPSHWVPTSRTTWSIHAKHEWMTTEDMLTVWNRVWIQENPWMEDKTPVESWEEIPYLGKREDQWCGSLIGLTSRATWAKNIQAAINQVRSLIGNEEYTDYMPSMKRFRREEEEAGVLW

[16] = target: T7, Carboxy-terminal domain RNA polymerase II polypeptide A small phosphatase 1 (Homo sapiens, UniProt Q9GZU7); experiment: CTDSP1 inhibitors, concentration-response, biochemical, absorbance readout, ultra-high-throughput screen actives (AID 540297); format: functional
T7 sequence (Q9GZU7 whole entry): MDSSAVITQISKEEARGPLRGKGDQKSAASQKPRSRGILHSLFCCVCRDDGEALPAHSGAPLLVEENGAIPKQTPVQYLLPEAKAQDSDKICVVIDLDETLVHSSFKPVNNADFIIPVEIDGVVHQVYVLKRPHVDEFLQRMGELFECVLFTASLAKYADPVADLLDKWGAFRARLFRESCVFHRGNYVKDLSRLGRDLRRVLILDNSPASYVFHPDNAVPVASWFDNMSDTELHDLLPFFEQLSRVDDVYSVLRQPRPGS

Vero = experiment: viability of Vero cells under compound – cytotoxicity control for flavivirus capping enzyme inhibitors (AID 588742); format: functional; details: Chlorocebus sabaeus
[17] = target: Envelope glycoprotein gp160 (Human immunodeficiency virus 1, UniProt Q6QLK5); experiment: cell-free HIV fusion peptide-binding blockers – biochemical, uHTS, fluorescence dequenching, […] (AID 1986)
Chain of Envelope glycoprotein gp160 (Q6QLK5 whole entry, the tested form may be a part): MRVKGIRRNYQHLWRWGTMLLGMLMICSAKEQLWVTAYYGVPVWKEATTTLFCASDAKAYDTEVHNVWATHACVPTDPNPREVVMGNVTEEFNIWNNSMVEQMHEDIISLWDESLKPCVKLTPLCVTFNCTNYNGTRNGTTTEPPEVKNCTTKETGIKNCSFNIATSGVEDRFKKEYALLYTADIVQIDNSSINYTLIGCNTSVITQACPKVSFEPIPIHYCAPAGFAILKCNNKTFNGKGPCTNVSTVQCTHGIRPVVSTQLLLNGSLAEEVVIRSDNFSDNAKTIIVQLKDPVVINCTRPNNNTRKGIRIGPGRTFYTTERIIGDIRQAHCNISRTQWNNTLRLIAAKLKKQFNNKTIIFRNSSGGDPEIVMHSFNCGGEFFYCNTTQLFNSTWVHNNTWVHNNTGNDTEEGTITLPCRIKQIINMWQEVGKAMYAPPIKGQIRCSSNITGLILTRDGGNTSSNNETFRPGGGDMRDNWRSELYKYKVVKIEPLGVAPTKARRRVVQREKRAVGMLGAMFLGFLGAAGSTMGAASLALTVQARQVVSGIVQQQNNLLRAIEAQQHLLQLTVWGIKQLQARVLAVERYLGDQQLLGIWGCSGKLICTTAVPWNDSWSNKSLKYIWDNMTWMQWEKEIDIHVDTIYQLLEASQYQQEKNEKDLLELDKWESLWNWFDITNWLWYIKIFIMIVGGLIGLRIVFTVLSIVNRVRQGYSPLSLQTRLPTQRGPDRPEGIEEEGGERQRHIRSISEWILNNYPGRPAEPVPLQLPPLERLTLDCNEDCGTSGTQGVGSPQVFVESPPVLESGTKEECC

[18] = target: Scavenger receptor class B member 1 (Mus musculus, UniProt Q61009); experiment: mouse SR-BI DiI-HDL uptake blockers – ldlA[mSR-BI] cells, fluorescence, cherry pick, dose response (AID 493194); format: functional, cell-based;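 further: cellular uptake of fluorescent DiI-labeled HDL measured as cell fluorescence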
Chain of Scavenger receptor class B member 1 (Q61009 whole entry): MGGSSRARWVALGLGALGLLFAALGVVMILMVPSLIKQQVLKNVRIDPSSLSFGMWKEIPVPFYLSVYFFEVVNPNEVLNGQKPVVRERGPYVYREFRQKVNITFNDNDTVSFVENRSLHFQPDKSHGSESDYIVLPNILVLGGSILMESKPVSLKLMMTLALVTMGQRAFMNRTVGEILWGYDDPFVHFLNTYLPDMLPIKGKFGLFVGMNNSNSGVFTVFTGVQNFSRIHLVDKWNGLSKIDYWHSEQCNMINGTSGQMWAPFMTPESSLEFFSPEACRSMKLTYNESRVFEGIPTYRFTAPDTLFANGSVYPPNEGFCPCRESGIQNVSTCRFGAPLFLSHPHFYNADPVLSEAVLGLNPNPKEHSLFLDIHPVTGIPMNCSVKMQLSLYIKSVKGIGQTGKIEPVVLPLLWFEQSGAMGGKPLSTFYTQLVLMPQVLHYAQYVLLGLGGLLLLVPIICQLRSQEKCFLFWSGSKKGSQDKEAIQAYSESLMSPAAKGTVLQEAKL

[19] = target: T8, Heat shock factor protein 1 (Mus musculus, UniProt P38532); experiment: decrease of HSF1-responsive luciferase luminescence – cell-based, NIH3T3, dose retest, confirmation (AID 2382); format: functional;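 further: NIH3T3 fibroblasts with HSF1-driven luciferase reporter stressed by proteasome inhibitor MG132; luminescence from HSF1-driven luciferase expression after 8 hours of MG132 stress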
T8 sequence (P38532 whole entry): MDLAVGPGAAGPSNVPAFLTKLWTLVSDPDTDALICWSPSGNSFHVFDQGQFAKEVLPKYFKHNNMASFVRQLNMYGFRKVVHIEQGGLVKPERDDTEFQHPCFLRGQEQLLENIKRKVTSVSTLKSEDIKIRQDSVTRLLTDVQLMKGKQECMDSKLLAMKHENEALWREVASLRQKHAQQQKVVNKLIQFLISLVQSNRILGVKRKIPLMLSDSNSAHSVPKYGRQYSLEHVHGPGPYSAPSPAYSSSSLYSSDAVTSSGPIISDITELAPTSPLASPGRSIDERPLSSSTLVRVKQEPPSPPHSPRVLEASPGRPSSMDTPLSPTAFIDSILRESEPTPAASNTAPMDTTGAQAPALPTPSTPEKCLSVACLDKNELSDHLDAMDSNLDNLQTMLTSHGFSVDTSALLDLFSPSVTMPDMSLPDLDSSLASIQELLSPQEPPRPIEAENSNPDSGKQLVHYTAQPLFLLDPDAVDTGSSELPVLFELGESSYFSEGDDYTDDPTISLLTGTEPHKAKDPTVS

Chain of Metabotropic glutamate receptor 4 (P31423 whole entry): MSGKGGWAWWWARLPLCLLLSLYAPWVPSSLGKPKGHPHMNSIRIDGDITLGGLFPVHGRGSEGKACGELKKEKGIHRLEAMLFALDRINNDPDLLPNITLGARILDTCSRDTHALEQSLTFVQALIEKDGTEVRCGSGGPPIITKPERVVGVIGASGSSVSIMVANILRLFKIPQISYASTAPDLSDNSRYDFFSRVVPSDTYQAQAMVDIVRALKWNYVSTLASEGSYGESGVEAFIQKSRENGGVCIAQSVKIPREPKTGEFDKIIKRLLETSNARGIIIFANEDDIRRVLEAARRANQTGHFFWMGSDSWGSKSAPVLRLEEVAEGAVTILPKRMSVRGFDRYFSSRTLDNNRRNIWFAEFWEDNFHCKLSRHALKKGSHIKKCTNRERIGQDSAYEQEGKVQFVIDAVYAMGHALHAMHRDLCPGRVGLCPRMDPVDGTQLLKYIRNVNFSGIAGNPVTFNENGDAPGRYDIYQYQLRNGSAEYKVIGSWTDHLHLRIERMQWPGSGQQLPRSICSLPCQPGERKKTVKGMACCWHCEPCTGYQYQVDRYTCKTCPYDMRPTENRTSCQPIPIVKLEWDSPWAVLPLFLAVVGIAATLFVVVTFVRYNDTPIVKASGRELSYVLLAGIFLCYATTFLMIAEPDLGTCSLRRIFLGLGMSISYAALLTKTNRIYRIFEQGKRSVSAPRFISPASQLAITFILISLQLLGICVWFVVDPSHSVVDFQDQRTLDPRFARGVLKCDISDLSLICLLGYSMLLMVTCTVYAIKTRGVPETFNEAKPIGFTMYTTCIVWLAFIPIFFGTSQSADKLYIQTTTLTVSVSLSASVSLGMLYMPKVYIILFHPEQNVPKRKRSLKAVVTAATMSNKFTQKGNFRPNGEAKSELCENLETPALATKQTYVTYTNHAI

CC1(c2ccccc2)CC(=O)N(c2ccc(NC(=O)c3ccccn3)cc2Cl)C1=O (centres undefined)
EC50 [1]: 0.54 µM (active)

CCOC(=O)C1=C(C)N=c2sc(=Cc3ccc(OCC(=O)O)cc3)c(=O)n2C1c1ccc(SC)cc1 (centres undefined)
IC50 [2]: 5.06 µM (active)
IC50 [3]: 0.537 µM (active)
IC50 [4]: 2.01 µM (active)
IC50 [5]: 16.2 µM (active)
IC50 [6]: 3.14 µM (active)
IC50 [7]: 9.68 µM (active)
IC50 [8]: 0.684 µM (active)
IC50 [9]: 2.52 µM (active)
IC50 [10]: 52.8 µM (inactive)
IC50 [11]: 18.9 µM (active)
IC50 [12]: > 66.6 µM (inactive)
IC50 [13]: 5.14 µM (active)
IC50 [14]: 7.7 µM (active)
IC50 [15]: 14.6 µM (active)

Cc1c(CCC(=O)O)c(=O)oc2c(C)c3occ(-c4ccc(Cl)cc4)c3cc12
IC50 [5]: 22.4 µM (inactive)
IC50 (Genome polyprotein): 42.2 µM (active)
IC50 [16]: 4.89 µM (active)
IC50 [10]: 19.1 µM (active)
CC50 (Vero): > 40 µM (active)
IC50 [17]: 15.1 µM (active)
IC50 [15]: 8.61 µM (active)

CCOc1ccccc1/C=C/c1onc(C)c1S(=O)(=O)N1CCC(C(=O)NC(C)(C)C)CC1
AC50 [18]: 0.05 µM (active)
EC50 [19]: > 195 µM (not active)

— ChEMBL document CHEMBL1201862, “PubChem BioAssay data set” (2004)
